According to ChEMBL document CHEMBL2331254, “Pyrrolopyrimidine inhibitors of DNA gyrase B (GyrB) and topoisomerase IV (ParE), Part II: development of inhibitors with broad spectrum, Gram-negative antibacterial activity” (Bioorg Med Chem Lett, 2013):
Values after ≈ are worked out from the molar mass of the structure shown.

Columns and labels:
[1] = test system: Escherichia coli; assay: Antibacterial activity against permeabilized Escherichia coli IBAS849 by broth microdilution method; assay type: functional
[2] = test system: Staphylococcus aureus; assay: Antibacterial activity against Staphylococcus aureus ATCC 13709 by broth microdilution method; assay type: functional
[3] = test system: Escherichia coli; assay: Antibacterial activity against wild type Escherichia coli ATCC 25922 by broth microdilution method; assay type: functional
[4] = Inhibition of Escherichia coli parE assessed as release of inorganic phosphate from ATP hydrolysis after 30 mins by coupled spectrophotometric assay
[5] = Inhibition of Escherichia coli GyrB assessed as release of inorganic phosphate from ATP hydrolysis after 30 mins by coupled spectrophotometric assay
[6] = test system: Escherichia coli; assay: Antibacterial activity against Escherichia coli BW25113 harboring deltatolC by broth microdilution method; assay type: functional
[7] = Inhibition of Francisella tularensis GyrB assessed as release of inorganic phosphate from ATP hydrolysis after 30 mins by coupled spectrophotometric assay
[8] = Inhibition of Francisella tularensis parE assessed as release of inorganic phosphate from ATP hydrolysis after 30 mins by coupled spectrophotometric assay
[9] = test system: Pseudomonas aeruginosa; assay: Antibacterial activity against Pseudomonas aeruginosa PAO1 by broth microdilution method; assay type: functional
[10] = test system: Klebsiella pneumoniae; assay: Antibacterial activity against Klebsiella pneumoniae ATCC 700603 by broth microdilution method; assay type: functional
[11] = test system: Streptococcus pneumoniae; assay: Antibacterial activity against Streptococcus pneumoniae ATCC 51916 by broth microdilution method; assay type: functional
[12] = test system: Staphylococcus aureus; assay: Antibacterial activity against Staphylococcus aureus ATCC 13709 by broth microdilution method in presence of 20% mouse serum; assay type: functional
[13] = test system: Escherichia coli; assay: Antibacterial activity against wild type Escherichia coli ATCC 25922 by broth microdilution method in presence of 20% mouse serum; assay type: functional
[14] = test system: Acinetobacter baumannii; assay: Antibacterial activity against Acinetobacter baumannii ATCC 19606 by broth microdilution method; assay type: functional; settings: ATCC 19606 = CIP 70.34 = JCM 6841
[15] = test system: Haemophilus influenzae; assay: Antibacterial activity against Haemophilus influenzae ATCC 49247 by broth microdilution method; assay type: functional

CCc1[nH]c2nc(Sc3ccc4cc5c([n+]([O-])c4c3)CCNC5)nc(N3CCC(N)C3)c2c1Cl (configuration not stated)
MIC [1]: 16 µg/mL (≈ 32.3 µM) | MIC [2]: 2 µg/mL (≈ 4.03 µM) | MIC [3]: 16 µg/mL (≈ 32.3 µM) | Ki [4]: 6 nM | Ki [5]: < 0.5 nM | MIC [6]: 4 µg/mL (≈ 8.06 µM)

CCc1[nH]c2nc(Sc3cnc4nccnc4c3)nc(N3CC(O)C3)c2c1Cl
Ki [7]: 7 nM | MIC [1]: 4 µg/mL (≈ 9.66 µM) | MIC [2]: 0.25 µg/mL (≈ 0.604 µM) | MIC [3]: > 64 µg/mL | MIC [6]: 2 µg/mL (≈ 4.83 µM) | Ki [8]: 5 nM

CCc1[nH]c2nc(Oc3cnc4ccc[n+]([O-])c4c3)nc(N3CC[C@@H](N)C3)c2c1Cl
MIC [9]: 16 µg/mL (≈ 37.6 µM) | MIC [1]: 1 µg/mL (≈ 2.35 µM) | MIC [2]: 0.13 µg/mL (≈ 0.305 µM) | MIC [10]: 32 µg/mL (≈ 75.1 µM) | MIC [11]: 1 µg/mL (≈ 2.35 µM) | MIC [3]: 4 µg/mL (≈ 9.39 µM) | MIC [12]: 0.13 µg/mL | Ki [4]: 4.6 nM | MIC [13]: 2 µg/mL | Ki [5]: < 0.3 nM | MIC [14]: 8 µg/mL (≈ 18.8 µM) | MIC [6]: 0.5 µg/mL (≈ 1.17 µM) | MIC [15]: 4 µg/mL (≈ 9.39 µM) | Ki [8]: 1.1 nM

CCc1[nH]c2nc(Sc3cccnc3)nc(NC[C@H](C)O)c2c1Cl
Ki [7]: 171 nM | MIC [1]: 32 µg/mL (≈ 87.9 µM) | MIC [2]: 4 µg/mL (≈ 11 µM) | MIC [3]: > 64 µg/mL | Ki [8]: 173 nM

CCc1[nH]c2nc(Sc3ccc4ccc(C(=O)O)nc4c3)nc(N3CCC(N)C3)c2c1Cl (configuration not stated)
MIC [1]: > 64 µg/mL | MIC [2]: 2 µg/mL (≈ 4.26 µM) | MIC [3]: > 64 µg/mL | Ki [4]: 2 nM | Ki [5]: < 0.5 nM | MIC [6]: 8 µg/mL (≈ 17.1 µM)

CCc1[nH]c2nc(Sc3cnc4nccnc4c3)nc(N3CC(N)C3)c2c1Cl
Ki [7]: 7 nM | MIC [1]: 8 µg/mL (≈ 19.4 µM) | MIC [2]: 1 µg/mL (≈ 2.42 µM) | MIC [3]: 64 µg/mL (≈ 155 µM) | MIC [6]: 4 µg/mL (≈ 9.69 µM) | Ki [8]: 5 nM

CCc1[nH]c2nc(Sc3ccc4[nH]cc(C(=O)O)c(=O)c4c3)nc(N3CCC(N)C3)c2c1Cl (configuration not stated)
MIC [1]: > 64 µg/mL | MIC [2]: > 64 µg/mL | MIC [3]: > 64 µg/mL | Ki [4]: 1 nM | Ki [5]: < 0.5 nM | MIC [6]: > 64 µg/mL

CCc1[nH]c2nc(Sc3ccc4c(c3)C(=O)NC4)nc(N3C[C@@H]4[C@@H](N)[C@@H]4C3)c2c1Cl
MIC [1]: 4 µg/mL (≈ 9.07 µM) | MIC [2]: 0.5 µg/mL (≈ 1.13 µM) | MIC [3]: 32 µg/mL (≈ 72.6 µM) | Ki [4]: 8 nM | Ki [5]: 4 nM | MIC [6]: 1 µg/mL (≈ 2.27 µM)

CCc1[nH]c2nc(Oc3cncnc3)nc(N3C[C@@H]4[C@@H](N)[C@@H]4C3)c2c1Cl
MIC [9]: 32 µg/mL (≈ 86.1 µM) | Ki [7]: < 0.3 nM | MIC [1]: 1 µg/mL (≈ 2.69 µM) | MIC [2]: 1 µg/mL (≈ 2.69 µM) | MIC [10]: 64 µg/mL (≈ 172 µM) | MIC [11]: 2 µg/mL (≈ 5.38 µM) | MIC [3]: 4 µg/mL (≈ 10.8 µM) | MIC [12]: 2 µg/mL | Ki [4]: 3.4 nM | MIC [13]: 2 µg/mL | Ki [5]: 0.4 nM | MIC [14]: 16 µg/mL (≈ 43 µM) | MIC [6]: 2 µg/mL (≈ 5.38 µM) | MIC [15]: 4 µg/mL (≈ 10.8 µM) | Ki [8]: 1.8 nM

CCc1[nH]c2nc(Sc3cnc4nccnc4c3)nc(NC[C@H](C)O)c2c1Cl
Ki [7]: 43 nM | MIC [1]: 8 µg/mL (≈ 19.2 µM) | MIC [2]: 1 µg/mL (≈ 2.4 µM) | MIC [3]: > 64 µg/mL | MIC [6]: 4 µg/mL (≈ 9.62 µM) | Ki [8]: 23 nM

CCc1[nH]c2nc(Sc3cncc(S(=O)(=O)N(C)C)c3)nc(N3C[C@@H]4[C@@H](N)[C@@H]4C3)c2c1Cl
MIC [1]: 32 µg/mL (≈ 64.8 µM) | MIC [2]: 2 µg/mL (≈ 4.05 µM) | MIC [3]: > 64 µg/mL | Ki [4]: 19 nM | Ki [5]: 2 nM | MIC [6]: 4 µg/mL (≈ 8.1 µM)
